Laboratory results taken from patent US10006057B2, “Recombinant yeast having enhanced gamma valerolactone tolerance and methods of use” (Wisconsin Alumni Research Foundation, priority 2014, dated 2018).
“Also recorded” adds a separate entry of the source.

Legend:
Type in all cases: cell-based, Saccharomyces cerevisiae
yeast [1] = experiment: 4-vinylphenol-GVL synergy, growth; conditions: FIG. 6C; p<0.01
yeast [2] = experiment: IC50 determination, growth inhibition (strain not stated at the result); conditions: FIG. 6B; p<0.001
Experimental: (§1) Compounds tested were purchased from Sigma. Cells of S. cerevisiae (MATα pdr1Δ::natMX pdr3Δ::KI.URA3 snq2Δ::KI.LEU2 can1Δ::STE2pr-Sp_his5 lyp1Δ his3Δ1 leu2Δ0 ura3Δ0 met15Δ0), referred to as control strain, were grown in 200 μl cultures at 30° C. in YPD, with a drug or DMSO control. Plates were read on a TECAN M1000 over a 48 h growth period. The specific growth rate was calculated using GCAT analysis software (available at gcat3-pub.glbrc.org on the world wide web). When presented, IC50 values for growth inhibition were calculated from triplicate 8 point dose curves and SigmaPlot 12.0. When presented, error bars are Mean±Standard error of at least 3 replicates.

[3] = tested on: membrane integrity of yeast cells; experiment: Cell leakage assay (dye uptake, flow cytometry); conditions: dye uptake after treatment; FIG. 3A, B
Source text: To confirm if GVL treatment can rapidly affect cell integrity, we assessed cell permeability after GVL treatment. […] Given that both GVL and ethanol can damage cellular membranes, we also tested if these compounds are synergistic.
A FungaLight™ cell viability assay (Invitrogen L34952) was used to determine if poacic acid caused membrane damage we used using a Guava Flow Cytometer (Millipore, USA). The population of stained cells (damaged integrity) vs non-stained cells can be determined by flow cytometry. Caspofungin (50 ng/ml) was included as a positive control. MMS and DMSO were included as a non-cell wall targeting and solvent control respectively. To test the effects of the compounds on both active and arrested cells, log-phase cultures were washed with 1×PBS and resuspended to an OD of 0.5 in either YPD media or YP (no carbon source) in the presence of the drugs (n=3) for 4 hours at 30° C. The cells were then stained and immediately read by flow cytometry. A one-way ANOVA and Tukey's test was used to calculate the difference between drug treatments among cells with arrested growth.

Y133 pad1Δfdc1Δ [4] = experiment: Growth and sugar conversion in synthetic hydrolysate with 1% GVL; conditions: anaerobic, synthetic hydrolysate containing 1% GVL; FIG. 5D
Experimental: (§2) 6 25-mL anaerobic flasks were prepared with Synthetic hydrolysate (SynH) (6% glucose/3% xylose)+1% GVL, pH 5.0. Flasks were inoculated with rinsed 133 or 133 pad1Δfdc1Δ cells to bring the initial OD to approximately 0.1. The tubes were grown for 72 hours with agitation anaerobically at 30° C. 1 mL samples were taken every 24 hours. Initial and daily samples were measured for OD and submitted for HPLC analysis to quantify sugar consumption and ethanol production.

Y133 background strain = experiment: as above; conditions: anaerobic, synthetic hydrolysate containing 1% GVL; FIG. 5D
Experimental: as §2

Y133 + pPAD1 = experiment: GVL IC50, single mutant cultures; conditions: FIG. 4D
Source text: We wanted to extend our chemical genomic analysis to industrially an industrially relevant, xylose ferment yeast strain. Presently there are no available genome-wide deletion mutant collections in industrial yeast, so we took a complementary approach. The MoBY-ORF 2.0 plasmid collection is with barcoded versions of 95% of all S. cerevisiae genes each expressed on a 2μ plasmid. This collection of plasmids can be pooled and transformed into any yeast to allow investigations of the effect of gene dose under stress conditions. We transformed a version of the xylose-fermenting yeast GLBRC-Y133 [15] en masse with the pooled plasmid collection and selected over 50K individual transformants (10× genome coverage). We grew this pooled transformant collection in the presence of 2.5% GVL or a water control under anaerobic conditions in glucose/xylose containing media and assessed the effects of increased gene dose on growth in the presence of GVL. We found the Pad1p overexpression mutant was one of the top sensitive strains (p<0.01, FIG. 4C). […]
(§3) Compounds tested were purchased from Sigma. […] Plates were read on a TECAN M1000 over a 48 h growth period. The specific growth rate was calculated using GCAT analysis software (available at gcat3-pub.glbrc.org on the world wide web). When presented, IC50 values for growth inhibition were calculated from triplicate 8 point dose curves and SigmaPlot 12.0. […]

lab strain = experiment: GVL-ethanol synergy, growth; conditions: FIG. 3C
Experimental: (§4) To test for synergy, a 6×6 dose matrix was initially used to identify potentially synergistic dose combinations, these points were then confirmed in triplicate. 200 μl cultures were grown with combinations of with poacic acid (125 μg/ml), caspofungin (12.5 ng/ml) and fluconazole (3.8 μg/ml) and the relevant single agent and solvent controls their OD measured after 24 h. Synergy was determined by comparing actual optical density in the presence of compound combinations to an expected value calculated using the multiplicative hypothesis. This assumes that, in the absence of an interaction, each compound would decrease the OD of the cell culture by the same fraction in the presence of the other compound as it does when applied alone, i.e., E=A*B/C, where E is the expected OD, A is OD when compound A is applied alone, B is OD when compound B is applied alone, and C is OD of the control culture (DMSO). In the presence of synergy, the actual OD value is lower than the expected OD. A paired t-test was used to confirm statistical significance of this difference in 3 replicates of the experiment.
(§5) The synergistic interaction between GVL and ethanol was initially discovered using a 6-point dose matrix of the two compounds. We identified the points of the greatest synergy and perform triplicate growth curves of GLBRY-128 using a TECAN M1000 microplate reader. To confirm the GVL-R1 strain was less sensitive to the synergism between GVL and ethanol, used a 6-point dose matrix as described above with both GLBRCY-128 or GVL-R1 in a TECAN microplate reader for 48 hours at 30° C. Data from the most synergistic combination is presented (2% GVL-5% ethanol).

xylose fermenting strain = experiment: GVL-ethanol synergy, growth; conditions: FIG. 3C
Experimental: as §4, §5

Y133 pad1Δfdc1Δ [5] = experiment: IC50 / tolerance, growth inhibition; conditions: FIG. 5C; p<0.01
[6] = tested on: FDC1 deletion mutant in the standard lab strain background; experiment: GVL IC50, growth inhibition; conditions: single mutant validation; FIG. 4B
Experimental: as §1

[7] = tested on: PAD1 deletion mutant in the standard lab strain background; experiment: GVL IC50, growth inhibition; conditions: single mutant validation; FIG. 4B
Experimental: as §1

[8] = tested on: deletion mutants of SEC28, VPS38, DID2; experiment: Single mutant validation of GVL sensitivity; conditions: single mutant cultures; FIG. 2C
Source text: Among the top 10 sensitive deletion mutants, we found significant enrichment for genes involved in late endosome to vacuole transport (p<0.01, FIG. 2B), driven by deletion mutants of SEC28, VPS38, DID2. […] Deletion mutants of these 3 genes have increased sensitivity to ethanol, heat, and membrane disrupting agents such as miconazole and nigercin. When we correlated the chemical genomic profile of GVL with the yeast genetic interaction network, we found significant enrichment for genes involved in golgi-vesicle mediated transport among the top 10 correlations (p=0.001). RET2 was consistently predicted as the top correlation for the GVL chemical genomic profile. Ret2p is a subunit of the coatomer complex involved in retrograde transport between Golgi and ER is also involved in golgi transport of vesicles. RET2 mutants similarity show increased sensitivity to heat and membrane disrupting agents.
as §3

S. cerevisiae = experiment: 8 point dose curve for chemical genomic profiling; conditions: YP-galactose media, 24 hours of growth
Experimental: Chemical genomic analysis of poacic acid was performed as described as described previously. The tested yeast deletion collection had ˜4000 strains using the genetic background described in Andrusiak (2012). The optimal inhibitory concentration of poacic acid for chemical genomic profiling (70-80% growth versus solvent control in YP-galactose media after 24 hours of growth) was determined using an 8 point dose curve. A concentration of 88 μg/ml inhibited growth within this range. 200 μl cultures of the pooled, deletion collection of S. cerevisiae deletion mutants were grown with 88 μg/ml poacic acid or a DMSO control in triplicate for 48 h at 30° C. Genomic DNA was extracted using the Epicentre MasterPure™ Yeast DNA purification kit. Mutant-specific molecular barcodes were amplified with specially designed multiplex primers. The barcodes were sequenced using an Illumina MiSeq. 3 replicates of each condition (poacic acid vs DMSO) were sequenced. One DMSO control was lost due to poor sequencing reads. The barcode counts for each yeast deletion mutant in the presence of poacic acid were normalized against the DMSO control conditions to define sensitivity or resistance of individual strains. To determine a p-value for each top sensitive and resistant mutant, we used the EdgeR package. […]

Compound: C=Cc1ccc(O)cc1 [4-vinylphenol]
- synergistic interaction between 4-vinylphenol and GVL (yeast [1]): significantly synergistic; also recorded: statistically significant synergistic interaction
- IC50 / toxicity of 4-vinylphenol relative to coumaric acid (yeast [2]): significantly more toxic; also recorded: an order of magnitude lower

Compound: CC1CCC(=O)O1 (centres unmarked) [GVL, gamma valerolactone]
- GVL concentration at which loss of membrane integrity is apparent [3]: 2.5%
- growth, sugar consumption and ethanol production in presence of GVL (Y133 pad1Δfdc1Δ [4]): faster growth, sugar consumption, and ethanol production; also recorded: grew, consumed sugars, and produced ethanol
- growth, sugar consumption and ethanol production in presence of GVL (Y133 background strain): did not
- GVL tolerance with increased expression of PAD1 (Y133 + pPAD1): significantly reduced GVL tolerance
- synergism between GVL and ethanol (lab strain): strong synergism
- synergistic interaction between GVL and ethanol (xylose fermenting strain; 1% GVL and 4% ethanol, p<0.01): significantly synergistic; also recorded: significant synergistic interaction
- synergism between GVL and ethanol (xylose fermenting strain; xylose fermenting strain): strong synergism
- IC50 concentration / tolerance of GVL versus Y133 background (Y133 pad1Δfdc1Δ [5]): significantly greater; also recorded: significantly higher
- GVL tolerance of deletion mutant [6]: more tolerant; also recorded: improved GVL tolerance
- GVL tolerance of deletion mutant [7]: more tolerant; also recorded: improved GVL tolerance
- GVL IC50 / sensitivity compared to the control strain [8]: significantly more sensitive; also recorded: lower IC50

Compound: poacic acid
- concentration giving 70-80% growth versus solvent control (S. cerevisiae): 88 µg/mL
